Assay results from patent US20240156790A1, “COMPOUNDS, COMPOSITIONS, AND METHODS FOR MODULATING FERROPTOSIS AND TREATING EXCITOTOXIC DISORDERS” (THE TRUSTEES OF COLUMBIA UNIVERSITY IN THE CITY OF NEW YORK, priority 2018, published 2024).
“Also recorded” adds a separate entry of the source. Read-outs that look alike come from different tables or passages of the source.

Tests used:
[1] = system: N27 rat dopaminergic cells; assay: Suppression of ferroptosis induced by RSL3 in N27 cells (CellTiter-Glo viability); type: cell-based
R6/2 mice = assay: 45-day drinking water and PO study of ferrostatins in R6/2 mice (weight, survival, Rotarod, Catwalk, LC/MS); type: in vivo
Method: Ferrostatins and 42 μM Citric acid were dissolved in 5% DMSO, 5% ethanol, and 90% PBS rendering a final concentration of 0.29 mg/mL of each ferrostatin in drinking water. The mice drink ˜2 mL water per day, and the resulting dosage was around 20-30 mg/kg/day. R6/2 mice at ˜6-7 weeks of age were treated via drinking water and PO at 20 mg/kg. Mice were weighed daily, the weight recorded, and the change in body weight compared to the baseline, pre-injection weight was calculated. Any mouse that lost more than 20% of its baseline body weight for three consecutive days was euthanized prior to the completion of the study. Mice were euthanized by CO2 asphyxiation for 3 min after administration. Approximately 0.5 mL of blood was collected via cardiac puncture and immediately put in K3 EDTA microtubes and kept on ice. Brains were harvested, placed in Eppendorf tubes, and frozen on dry ice. Blood samples were centrifuged for 10 min at 2,100×g at 4° C., then plasma was transferred to a clean tube and frozen on dry ice.
Brain samples were weighed and placed in hard tissue homogenizing tubes. Two volume of HPLC grade methanol was added to make a solution and homogenized using the Omni Bead Ruptor 4 at speed 5 for two 30-second runs. The product was aliquoted and diluted by adding 900 μL HPLC grade ice-cold methanol. After centrifugation for 20 mins at 14,000×g at 4° C., supernatant was collected in a clean vial and dried by vacuum centrifugation (GeneVac).
Prior to LC-MS analysis, the samples were resuspended in 100 μL methanol and centrifuged for 5 minutes at 14,000×g at 4° C. The supernatant was analyzed via SYNAPT High Resolution Mass Spectrometer.
Rotarod “Linear Incline” experiment was performed with 11- to 12-week-old R6/2 mice at Day 25 with a rotations per minute (RPM) ramp over a 300s duration, start speed of 5 RPM, and max speed of 40 RPM. Mice were acclimated to testing room for 30 minutes prior to experimentation. Latency to fall was recorded in seconds for each mouse, and lanes were cleaned with 70% ethanol between mice.
The Catwalk apparatus (Noldus Information Technology, Leesburg, VA) consisted of an illuminated walled glass walkway (130 cm×10 cm) and a high-speed camera underneath. Mice were allowed 30 minutes to acclimate to the testing room, then behavioral task was performed with 11- to 12-week-old R6/2 mice on Day 25. Mice were placed on the glass walkway and allowed to ambulate freely across the runway towards the goal box at the end of the walkway. A goal box blocked the other end of the walkway, forcing the mouse to return to the entryway. Each mouse completed Catwalk runs until three compliant runs (fluent crossings without stopping/hesitation), were detected and verified, running for as long as needed to do so. Behavioral measures were calculated using Noldus Gait Analysis Software, and pairing and further comparisons were done using RM one-way ANOVAs.
The pharmacokinetic properties of TH-4-55-2 were initially assessed in vivo, focusing on its BBB distribution. Subsequent investigations involved TH-4-67 and TH-2-31. […] This regimen continued for 45 days, during which changes in body weight were monitored (FIG. 29A). Mouse body weights that fell under 20% of baseline measurements were sacrificed, while spontaneous deaths over the course of the study were monitored (FIG. 29B). Motor coordination was assessed via Rotarod behavior measurements (FIG. 30), and gait analysis was conducted using CatWalk (FIGS. 31A-31B).

[2] = Rattus norvegicus, N27, 24 h, 20 nM RSL3, 24 hours, separate experiment I, read-out: IC50 I
[3] = Rattus norvegicus, N27, 24 h, 20 nM RSL3, 24 hours, separate experiment II, read-out: IC50 II
[4] = Rattus norvegicus, N27, 24 h, 20 nM RSL3, 24 hours, separate experiment III, read-out: IC50 III
[5] = Rattus norvegicus, N27, 24 h, Table 3, ^d 24 hr treatment, 1,000 cells/well seeded, read-out: IC50
[6] = Rattus norvegicus, N27, 24 h, Table 13, 20 nM RSL3, treated for 24 hours^d, read-out: IC50
[7] = Rattus norvegicus, N27, 24 h, RSL3 20 nM, 24 hours of treatment, read-out: IC50
[8] = Rattus norvegicus, N27, Table 7, value used for Cmax/IC50, read-out: IC50

| SMILES | potency relative to fer-1, in words ([1]; 20 nM RSL3) | IC50 [1, 2] | IC50 [1, 3] | IC50 [1, 4] | IC50 [1, 5] | IC50 [1, 6] | IC50 [1, 7] | IC50 [1, 8] | Catwalk gait: Base of Support (BOS) (R6/2 mice; PO, Day 25) | IC50 ([1]; Rattus norvegicus, N27, Table 3, ^d 24 hr treatment, 1,000 cells/well seeded, read-out: IC50) | IC50 ([1]; Rattus norvegicus, N27, Table 3, ^e 48 hr treatment, 1,000 cells/well seeded, read-out: IC50) | EC50 ([1]; Rattus norvegicus, N27, text b573) | Catwalk gait: Cadence (R6/2 mice; PO, Day 25, Best performing mice) | Rotarod latency to fall (R6/2 mice; PO 20 mg/kg, Day 25, 20 mg/kg) | accumulation in brain over plasma (R6/2 mice; PO and drinking water, 45-day course) |
| --- | --- | --- | --- | --- | --- | --- | --- | --- | --- | --- | --- | --- | --- | --- | --- |
| Cc1noc(-c2cnc(NC3CCCCC3)c(NC3CCCCC3)c2)n1 [TH-2-31, N^2,N^3-dicyclohexyl-5-(3-methyl-1,2,4-oxadiazol-5-yl)pyridine-2,3-diamine] | less potent than fer-1 | 2.6 nM | 1.4 nM | 6.1 nM | 3.4 nM | 3.4 nM | < 10 nM | 3.37 nM | significantly worse BOS compared to Vehicle; also recorded: significantly worse performance |  |  |  |  |  |  |
| CCOC(=O)c1ccc(NC2CCCCC2)c(N)c1 [Fer-1, Ferrostatin-1, reference compound] |  |  |  |  |  |  |  |  |  | 3.2 nM | 12.5 nM |  |  |  |  |
| Cc1noc(-c2cnc(NC3CCCC3)c(NC3CCCC3)c2)n1 [TH-4-67, N^2,N^3-dicyclopentyl-5-(3-methyl-1,2,4-oxadiazol-5-yl)pyridine-2,3-diamine] | more potent than fer-1 | 1.5 nM | 1.4 nM | 3.4 nM | 2.1 nM | 2.1 nM |  | 2.1 nM | significant decrease in Base of Support (BOS); also recorded: significant improvement of BOS in the hind paws of least coordinated mice |  |  | 2 nM | the leading compound among this group |  |  |
| Cc1noc(-c2ccc(NC3CCCCC3)c(NC3CCCCC3)c2)n1 [PHB4082, N1,N2-dicyclohexyl-4-(3-methyl-1,2,4-oxadiazol-5-yl)benzene-1,2-diamine] |  |  |  |  |  | 2.6 nM |  |  |  |  |  |  |  |  |  |
| CCC(CC)Nc1cc(-c2nc(C)no2)cnc1NC1CCCCC1 [TH-4-55-2, N^2-cyclohexyl-5-(3-methyl-1,2,4-oxadiazol-5-yl)-N^3-(pentan-3-yl)pyridine-2,3-diamine] | more potent than fer-1 | 0.8 nM | 1 nM | 4.9 nM | 2.2 nM | 2.2 nM | < 10 nM | 2.23 nM |  |  |  |  |  | consistently scored higher compared to control; also recorded: consistently higher mean latency to fall across trials compared to control | preferentially accumulated in the brain over plasma for both routes of administration |
